Experimental data taken from ChEMBL document CHEMBL5291721, “A preclinical secondary pharmacology resource illuminates target-adverse drug reaction associations of marketed drugs” (Nat Commun, 2023).

Assays:
[1] = biological target: Voltage-dependent L-type calcium channel subunit alpha-1C (Rattus norvegicus, UniProt P22002); type: functional
Histamine H1 receptor = Histamine H1 receptor (Homo sapiens, UniProt P35367)
Adenosine receptor A1 = biological target: T1, Adenosine receptor A1 (Homo sapiens, UniProt P30542)
T1 sequence (P30542 whole entry): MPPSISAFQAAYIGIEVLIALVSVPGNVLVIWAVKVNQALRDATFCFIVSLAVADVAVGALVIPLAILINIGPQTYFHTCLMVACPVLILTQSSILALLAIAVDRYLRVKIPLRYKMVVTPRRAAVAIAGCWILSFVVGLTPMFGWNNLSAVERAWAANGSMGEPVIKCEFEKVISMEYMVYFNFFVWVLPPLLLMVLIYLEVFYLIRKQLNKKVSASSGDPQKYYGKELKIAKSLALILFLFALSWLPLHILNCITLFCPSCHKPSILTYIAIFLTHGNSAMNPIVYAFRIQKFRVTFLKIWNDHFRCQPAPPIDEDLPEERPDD

[2] = biological target: T2, Alpha-1A adrenergic receptor (Homo sapiens, UniProt P35348)
T2 sequence (P35348 whole entry): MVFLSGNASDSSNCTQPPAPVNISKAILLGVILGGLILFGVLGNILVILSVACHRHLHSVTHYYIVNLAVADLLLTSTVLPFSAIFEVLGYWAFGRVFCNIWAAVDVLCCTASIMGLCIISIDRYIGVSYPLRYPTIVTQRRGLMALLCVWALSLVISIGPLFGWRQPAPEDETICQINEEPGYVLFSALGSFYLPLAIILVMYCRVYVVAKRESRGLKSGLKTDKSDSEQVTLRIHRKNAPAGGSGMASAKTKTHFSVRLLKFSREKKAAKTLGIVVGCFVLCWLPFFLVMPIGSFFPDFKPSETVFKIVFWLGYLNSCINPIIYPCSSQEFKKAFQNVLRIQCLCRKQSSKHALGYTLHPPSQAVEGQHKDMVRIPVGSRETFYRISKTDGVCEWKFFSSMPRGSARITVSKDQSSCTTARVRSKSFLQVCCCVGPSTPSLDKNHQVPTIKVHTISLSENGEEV

[3] = biological target: T3, Neuropeptide Y receptor type 2 (Homo sapiens, UniProt P49146)
T3 sequence (P49146 whole entry): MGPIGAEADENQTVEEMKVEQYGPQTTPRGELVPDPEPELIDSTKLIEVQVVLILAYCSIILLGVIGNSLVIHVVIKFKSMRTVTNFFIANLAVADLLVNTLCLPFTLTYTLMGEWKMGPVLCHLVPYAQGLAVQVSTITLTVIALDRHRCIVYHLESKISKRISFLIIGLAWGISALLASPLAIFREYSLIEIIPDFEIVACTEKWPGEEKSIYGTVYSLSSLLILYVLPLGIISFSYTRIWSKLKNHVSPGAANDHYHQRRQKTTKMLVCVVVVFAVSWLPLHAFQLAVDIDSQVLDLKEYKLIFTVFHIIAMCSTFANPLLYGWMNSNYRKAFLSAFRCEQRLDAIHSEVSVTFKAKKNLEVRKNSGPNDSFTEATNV

[4] = biological target: Beta-3 adrenergic receptor (Homo sapiens, UniProt P13945)
Beta-3 adrenergic receptor, sequence (P13945 whole entry): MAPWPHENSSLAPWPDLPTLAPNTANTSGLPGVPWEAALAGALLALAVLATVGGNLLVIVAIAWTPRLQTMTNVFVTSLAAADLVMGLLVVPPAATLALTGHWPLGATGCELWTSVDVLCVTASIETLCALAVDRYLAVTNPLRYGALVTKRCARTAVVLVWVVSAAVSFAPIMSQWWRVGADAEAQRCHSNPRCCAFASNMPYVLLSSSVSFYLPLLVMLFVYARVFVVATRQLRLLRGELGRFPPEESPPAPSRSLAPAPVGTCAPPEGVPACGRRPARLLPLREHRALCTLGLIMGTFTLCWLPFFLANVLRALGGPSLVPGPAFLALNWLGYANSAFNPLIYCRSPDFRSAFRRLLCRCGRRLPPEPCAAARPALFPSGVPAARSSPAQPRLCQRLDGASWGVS

[5] = biological target: T2, Alpha-1A adrenergic receptor; remark: listed apart in the source
Histamine H2 receptor = Histamine H2 receptor (Homo sapiens, UniProt P25021)
Histamine H2 receptor, sequence (P25021 whole entry): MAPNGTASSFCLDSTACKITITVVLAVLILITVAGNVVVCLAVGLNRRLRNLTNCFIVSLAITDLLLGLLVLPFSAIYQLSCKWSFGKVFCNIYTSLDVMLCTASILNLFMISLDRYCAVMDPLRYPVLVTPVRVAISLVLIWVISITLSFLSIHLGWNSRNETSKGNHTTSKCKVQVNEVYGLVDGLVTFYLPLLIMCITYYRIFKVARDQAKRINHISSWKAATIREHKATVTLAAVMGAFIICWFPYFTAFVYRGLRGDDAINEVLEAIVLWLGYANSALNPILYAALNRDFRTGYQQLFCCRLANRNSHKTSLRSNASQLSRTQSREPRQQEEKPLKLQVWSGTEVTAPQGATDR

[6] = biological target: Gamma-aminobutyric acid receptor subunit alpha-1/alpha-2/beta-2/gamma-2 (Homo sapiens, UniProt P14867+P18507+P47869+P47870); type: functional, cell-based
Further: assay procedure not described here.

Voltage-dependent L-type calcium channel subunit alpha-1C, sequence (P22002 whole entry): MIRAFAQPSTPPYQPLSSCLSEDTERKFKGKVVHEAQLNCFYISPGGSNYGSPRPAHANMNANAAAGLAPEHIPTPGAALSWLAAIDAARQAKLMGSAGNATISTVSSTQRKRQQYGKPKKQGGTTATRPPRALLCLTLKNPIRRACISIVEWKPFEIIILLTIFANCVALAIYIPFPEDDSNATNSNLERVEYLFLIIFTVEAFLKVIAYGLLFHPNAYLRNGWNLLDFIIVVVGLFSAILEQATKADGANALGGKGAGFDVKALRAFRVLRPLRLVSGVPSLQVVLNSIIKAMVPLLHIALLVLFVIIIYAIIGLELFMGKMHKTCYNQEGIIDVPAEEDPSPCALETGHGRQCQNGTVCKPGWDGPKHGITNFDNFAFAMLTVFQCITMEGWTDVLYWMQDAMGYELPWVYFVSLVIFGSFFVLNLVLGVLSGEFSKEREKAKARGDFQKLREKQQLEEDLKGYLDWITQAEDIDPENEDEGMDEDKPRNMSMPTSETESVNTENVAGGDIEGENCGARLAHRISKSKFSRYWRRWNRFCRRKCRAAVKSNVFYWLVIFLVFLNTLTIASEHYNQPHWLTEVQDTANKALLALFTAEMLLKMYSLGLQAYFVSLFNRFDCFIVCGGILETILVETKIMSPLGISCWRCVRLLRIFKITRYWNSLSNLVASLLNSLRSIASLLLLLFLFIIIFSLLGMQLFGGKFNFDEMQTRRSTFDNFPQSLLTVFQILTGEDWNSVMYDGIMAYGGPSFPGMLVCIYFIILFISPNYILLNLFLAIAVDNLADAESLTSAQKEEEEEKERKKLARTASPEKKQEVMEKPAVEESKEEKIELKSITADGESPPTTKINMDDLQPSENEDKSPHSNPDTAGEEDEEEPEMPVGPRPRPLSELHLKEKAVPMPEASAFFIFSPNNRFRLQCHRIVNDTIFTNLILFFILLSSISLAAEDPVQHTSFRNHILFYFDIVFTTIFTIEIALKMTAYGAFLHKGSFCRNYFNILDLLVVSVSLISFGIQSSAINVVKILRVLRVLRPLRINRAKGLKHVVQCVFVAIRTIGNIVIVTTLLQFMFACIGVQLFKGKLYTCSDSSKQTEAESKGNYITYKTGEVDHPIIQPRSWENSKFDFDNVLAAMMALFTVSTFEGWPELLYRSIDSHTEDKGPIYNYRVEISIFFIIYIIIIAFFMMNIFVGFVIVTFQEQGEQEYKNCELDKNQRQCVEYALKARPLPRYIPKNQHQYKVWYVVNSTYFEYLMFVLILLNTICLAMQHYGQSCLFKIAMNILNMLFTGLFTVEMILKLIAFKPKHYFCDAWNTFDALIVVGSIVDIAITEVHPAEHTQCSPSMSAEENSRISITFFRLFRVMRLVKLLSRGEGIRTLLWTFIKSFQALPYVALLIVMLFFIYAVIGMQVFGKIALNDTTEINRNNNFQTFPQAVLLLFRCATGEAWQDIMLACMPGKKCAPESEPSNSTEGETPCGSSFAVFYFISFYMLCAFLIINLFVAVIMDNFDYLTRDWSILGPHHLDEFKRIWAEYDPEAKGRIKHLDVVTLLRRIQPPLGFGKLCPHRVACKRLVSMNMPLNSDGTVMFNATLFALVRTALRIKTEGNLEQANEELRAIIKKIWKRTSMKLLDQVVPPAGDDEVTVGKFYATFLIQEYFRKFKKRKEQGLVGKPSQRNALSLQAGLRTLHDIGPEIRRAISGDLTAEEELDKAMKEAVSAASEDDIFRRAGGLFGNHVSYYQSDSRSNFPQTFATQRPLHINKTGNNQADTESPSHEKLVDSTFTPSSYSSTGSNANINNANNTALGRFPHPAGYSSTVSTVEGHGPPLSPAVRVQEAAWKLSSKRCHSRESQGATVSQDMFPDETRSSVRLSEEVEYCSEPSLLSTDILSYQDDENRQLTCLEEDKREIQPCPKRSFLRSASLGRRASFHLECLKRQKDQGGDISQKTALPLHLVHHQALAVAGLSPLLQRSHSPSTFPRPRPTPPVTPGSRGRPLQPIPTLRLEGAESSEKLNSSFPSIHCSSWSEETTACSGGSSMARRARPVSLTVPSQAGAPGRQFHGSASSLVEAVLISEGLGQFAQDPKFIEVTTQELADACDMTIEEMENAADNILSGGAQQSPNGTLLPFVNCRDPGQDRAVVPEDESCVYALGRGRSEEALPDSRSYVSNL
Histamine H1 receptor, sequence (P35367 whole entry): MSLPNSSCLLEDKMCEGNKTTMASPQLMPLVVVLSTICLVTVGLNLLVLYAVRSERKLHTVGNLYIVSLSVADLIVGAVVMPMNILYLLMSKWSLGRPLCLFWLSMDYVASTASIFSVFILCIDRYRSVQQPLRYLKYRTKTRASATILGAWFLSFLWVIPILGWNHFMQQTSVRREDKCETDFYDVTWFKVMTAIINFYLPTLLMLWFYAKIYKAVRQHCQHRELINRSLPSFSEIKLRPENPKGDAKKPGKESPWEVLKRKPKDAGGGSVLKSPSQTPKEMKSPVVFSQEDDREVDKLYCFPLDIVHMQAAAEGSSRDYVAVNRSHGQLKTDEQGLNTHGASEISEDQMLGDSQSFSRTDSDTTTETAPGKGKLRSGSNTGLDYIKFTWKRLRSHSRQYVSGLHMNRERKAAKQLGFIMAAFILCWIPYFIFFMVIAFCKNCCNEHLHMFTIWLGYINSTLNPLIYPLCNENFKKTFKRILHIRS

| Compound | AC50 [1] [µM] | AC50 (Histamine H1 receptor) [µM] | AC50 (Adenosine receptor A1) [µM] | AC50 [2] [µM] | AC50 [3] [µM] | AC50 [4] [µM] | AC50 [5] [µM] | AC50 (Histamine H2 receptor) [µM] | AC50 [6] [µM] |
| --- | --- | --- | --- | --- | --- | --- | --- | --- | --- |
| CC(=O)Nc1ccc(CC(=O)O)cc1 [ACTARIT] | > 30 | > 30 |  |  |  |  |  |  |  |
| CC(C(=O)O)c1ccc2oc(-c3ccc(Cl)cc3)nc2c1 (configuration not stated) [BENOXAPROFEN] | > 30 |  |  |  |  |  |  |  |  |
| Nc1c(CC(=O)O)cccc1C(=O)c1ccc(Br)cc1 [BROMFENAC] |  |  | 23.6 |  |  |  |  |  |  |
| CC=CC1=C(C(=O)O)N2C(=O)[C@@H](NC(=O)[C@H](N)c3ccc(O)cc3)[C@H]2SC1 [CEFPROZIL] | > 30 | > 30 |  |  |  |  |  |  |  |
| CCCNC(=O)NS(=O)(=O)c1ccc(Cl)cc1 [CHLORPROPAMIDE] | > 10 |  |  | 5.7 | > 30 | > 30 |  |  |  |
| Cc1nc(Nc2ncc(C(=O)Nc3c(C)cccc3Cl)s2)cc(N2CCN(CCO)CC2)n1 [DASATINIB] | > 10 | > 30 |  | > 10 | > 10 |  | > 10 | > 10 |  |
| CC(C)Cc1ccc([C@H](C)C(=O)O)cc1 [DEXIBUPROFEN] |  |  |  |  |  |  |  |  | > 30 |
| O=C(O)Cc1ccccc1Nc1c(Cl)cccc1Cl [DICLOFENAC] | > 10 |  |  | 5 | > 30 | > 30 | > 10 | > 10 |  |
| CN[C@@H]1[C@H](O[C@H]2[C@H](O[C@H]3[C@H](O)[C@@H](O)[C@H](NC(=N)N)[C@@H](O)[C@@H]3NC(=N)N)O[C@@H](C)[C@]2(O)CO)O[C@@H](CO)[C@H](O)[C@H]1O [DIHYDROSTREPTOMYCIN] |  |  | > 30 |  |  |  |  |  |  |
| CC[C@H]1OC(=O)[C@H](C)[C@@H](O[C@H]2C[C@@](C)(OC)[C@@H](O)[C@H](C)O2)[C@H](C)[C@@H](O[C@@H]2O[C@H](C)C[C@H](N(C)C)[C@H]2O)[C@](C)(O)C[C@@H](C)[C@@H]2N[C@@H](COCCOC)O[C@H]([C@H]2C)[C@]1(C)O [DIRITHROMYCIN] |  |  | > 30 |  |  |  |  |  |  |
| O=C(O)Cc1ccccc1Oc1ccc(Cl)cc1Cl [FENCLOFENAC] | > 10 | > 10 |  | > 10 | > 30 | > 30 | > 10 | > 10 |  |
| Cc1ccc(C)c(OCCCC(C)(C)C(=O)O)c1 [GEMFIBROZIL] | > 10 |  |  | 13.7 | > 30 | > 30 | > 10 | > 10 |  |
| CCCCCCCN(CC)CCCC(O)c1ccc(NS(C)(=O)=O)cc1 (configuration not stated) [IBUTILIDE] | > 30 | > 30 |  |  |  |  |  |  |  |
| CC[C@H](C)C(=O)O[C@H]1C[C@@H](C)C=C2C=C[C@H](C)[C@H](CC[C@@H]3C[C@@H](O)CC(=O)O3)[C@H]21 [LOVASTATIN] | > 10 |  |  | > 10 | > 30 | 11.6 | > 10 | > 10 |  |
| CC[C@@H](CO)NC(=O)[C@@H]1C=C2c3cccc4c3c(cn4C)C[C@H]2N(C)C1 [METHYSERGIDE] | > 10 |  |  | > 10 | > 30 | > 30 |  | 2.44 |  |
| CNC(=C[N+](=O)[O-])NCCSCc1csc(CN(C)C)n1 [NIZATIDINE] | > 10 |  |  | > 10 |  |  |  |  |  |
| CN1Cc2c(N)cccc2C(c2ccccc2)C1 (configuration not stated) [NOMIFENSINE] |  | 30 |  |  |  |  |  |  | > 30 |
| CCCc1cc(=O)[nH]c(=S)[nH]1 [PROPYLTHIOURACIL] | > 10 |  |  | > 10 |  |  |  |  |  |
| Cn1cc(C(=O)[C@@H]2CCc3nc[nH]c3C2)c2ccccc21 [RAMOSETRON] | > 30 | > 30 |  |  |  |  |  |  |  |
| CN(CCOc1ccc(CC2SC(=O)NC2=O)cc1)c1ccccn1 (configuration not stated) [ROSIGLITAZONE] | > 30 |  |  |  | > 30 | > 30 | > 10 | > 10 |  |
| CC(C)[C@H](N)C(=O)OCCOCn1cnc2c(=O)[nH]c(N)nc21 [VALACYCLOVIR] | > 10 |  |  | > 10 | > 30 | > 30 | > 10 | > 10 |  |
| COc1cc(C(=O)NS(=O)(=O)c2ccccc2C)ccc1Cc1cn(C)c2ccc(NC(=O)OC3CCCC3)cc12 [ZAFIRLUKAST] | > 10 |  |  | > 10 |  |  |  |  |  |
